Here are results for one compound from BindingDB's records for doi:10.1074/jbc.M113.457119 (Institut National De Recherche Agronomique (Inra)-Vetagro …, 2013).

Experiment in all cases: VKOR Activity Assay
What all share (settings): pH 7.4; 37 °C

Assay [1] deals with T1, Vitamin K epoxide reductase complex subunit 1-like protein 1 (Rattus norvegicus, UniProt Q6TEK3).
T1 sequence (Q6TEK3 whole entry): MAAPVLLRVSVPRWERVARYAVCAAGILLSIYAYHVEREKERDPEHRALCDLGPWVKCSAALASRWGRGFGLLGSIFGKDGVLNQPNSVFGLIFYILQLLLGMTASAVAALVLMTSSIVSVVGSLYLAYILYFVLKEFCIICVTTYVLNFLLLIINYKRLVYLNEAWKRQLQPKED
On the procedure: (§1) Briefly, standard reactions were performed in 200 mM Hepes buffer, pH 7.4, containing 150 mM KCl, 1 mM dithiothreitol, 0.25 to 2 g liter-1 of total proteins containing membrane VKORC1. The reaction was started by the addition of vit K1>O solution in 1% Triton X-100 and incubated at 37 °C for 30 min. […] After incubation at 37 °C for 30 min, the reaction was stopped by adding 4 ml of iced 1:1 isopropyl alcohol/hexane solution. After centrifugation at 5000 x g for 10 min, the hexane layer was removed and driedunder nitrogen. The dry residue was immediately dissolved in 0.2 ml of isopropyl alcohol, and the reaction product was analyzed by liquid chromatography-mass spectrometry.

Assay [2] deals with T2, Vitamin K epoxide reductase complex subunit 1 (Rattus norvegicus, UniProt Q6TEK4).
T2 sequence (Q6TEK4 whole entry): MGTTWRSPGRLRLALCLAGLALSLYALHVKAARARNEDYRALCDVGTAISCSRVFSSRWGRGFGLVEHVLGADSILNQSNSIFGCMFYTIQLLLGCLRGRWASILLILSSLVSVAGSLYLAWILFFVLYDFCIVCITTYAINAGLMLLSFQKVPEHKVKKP
As for the experimental part: as §1

The target of assay [3] is T3, Vitamin K epoxide reductase complex subunit 1-like protein 1 (Homo sapiens, UniProt Q8N0U8).
T3 sequence (Q8N0U8 whole entry): T1 sequence (Q6TEK3 whole entry) with V112I, V119M, V143I, T144V, E175Q
On the procedure: as §1

Substitutions are numbered along the chain they refer to.

In general, Ki refers to the equilibrium dissociation constant of an inhibitor or competing ligand from its target. Consider `CC(=O)C[C@H](c1ccccc1)c1c(O)c2ccccc2oc1=O` [2-hydroxy-3-(3-oxo-1-phenylbutyl)-4H-chromen-4-one], for which the Ki in assay [1] amounted to 32.6 µM; in assay [2] it was 0.6 µM; in assay [3], 52 µM.
